Experimental data from article PMC5640650, “NatD promotes lung cancer progression by preventing histone H4 serine phosphorylation to activate Slug expression” (Nature Communications, 2017).

Experiments:
H1299 cells = assay: Wound healing assay, H1299 cells; assay type: cell-based, human; conditions: vs Scr
Excerpt: Fig. 2 NatD is required for lung cancer cell migration and invasion in vitro. a Quantitative real-time PCR analysis of NatD mRNA levels normalized to GAPDH in scrambled control cells (Scr) and NatD-KD1 and NatD-KD2 cells. Results are shown as mean ± s.d. from three independent experiments. Two-tailed Student’s t-test was used. **P < 0.01 compared to Scr control. b Western blot analysis of NatD and Nt-ac-H4 protein levels in scrambled, NatD-KD1, and NatD-KD2 cells. GAPDH and histone H4 served as loading controls. Blots are representative of three independent experiments. c Representative images from wound healing assay of scrambled, NatD-KD1, and NatD-KD2 cells from three independent experiments (left panels). Wound healing assay results are quantified in the histogram (right panel). […] Cell migration and invasion are expressed as a percentage of control (bottom panel). […]
The in vitro viability of H1299 cells was assessed using the Cell Counting Kit-8 (CCK-8, Dojindo, Japan) according to the manufacturer’s protocol. Flow cytometric analysis of apoptosis was assessed by Annexin V and PI staining using the Annexin V-APC Apoptosis Detection Kit (KeyGEN BioTECH, China) according to the manufacturer’s guide. […] The samples were analyzed by flow cytometry (Becton Dickinson, NJ, USA), and results were analyzed with FlowJo software according to the manufacturer’s instructions. […]

LLC cells = assay: Tail vein injection in C57BL/6 mice, LLC cells; assay type: in vivo, murine; conditions: 30 days, n = 5, vs Scr
Protocol: All animal care and handling procedures were performed in accordance with the National Institutes of Health Guide for the Care and Use of Laboratory Animals, and were approved by the Institutional Review Board of Nanjing University (Nanjing, China). Female SCID mice and C57BL/6 mice (6–8 week old) were purchased from the Model Animal Research Center of Nanjing University (Nanjing, China), and were maintained under specific pathogen-free conditions at Nanjing University. The sample size was chosen with adequate power on the basis of the literature and our previous experience[46] and for each experiment it is indicated in the figure legend. […] Lung nodules and progression were monitored and quantified using the bioluminescence system (Caliper IVIS Lumina XR) or by counting under a dissecting microscope. […] Mice were killed at day 28 or day 30 to collect lungs, and lung nodules in serial sections were quantified microscopically. […] Lung nodules and progression were monitored and quantified using the bioluminescence system (Caliper IVIS Lumina XR). Mice were killed at day 14 or day 21 to collect lungs, and lung nodules in serial sections were quantified microscopically. […]
Representative blots from three independent experiments. […] (bottom) Cell migration and invasion expressed as a percentage of Scr control. […]

Substance	migration in wound healing assay (H1299 cells)	number of tumor nodules (LLC cells)
NatD-KD1: Human NatD shRNA KD1: 5′-GATGAAGAAGGTTATGTTA-3′, lentiviral (shRNA, lentiviral)	migrated significantly more slowly	–
NatD-KD2: Human NatD shRNA KD2: 5′-GGTTGAATGTCTCCATTGA-3′, lentiviral (shRNA lentiviral)	migrated significantly more slowly	significantly fewer tumor nodules
